ChEMBL document CHEMBL1131780 (Bioorg Med Chem Lett, 1999)
Changes are numbered by the printed parent chain.

Assays:
[1] = biological target: T1, Muscarinic acetylcholine receptor M1 (Homo sapiens) (UniProt P11229)
T1 sequence (whole entry): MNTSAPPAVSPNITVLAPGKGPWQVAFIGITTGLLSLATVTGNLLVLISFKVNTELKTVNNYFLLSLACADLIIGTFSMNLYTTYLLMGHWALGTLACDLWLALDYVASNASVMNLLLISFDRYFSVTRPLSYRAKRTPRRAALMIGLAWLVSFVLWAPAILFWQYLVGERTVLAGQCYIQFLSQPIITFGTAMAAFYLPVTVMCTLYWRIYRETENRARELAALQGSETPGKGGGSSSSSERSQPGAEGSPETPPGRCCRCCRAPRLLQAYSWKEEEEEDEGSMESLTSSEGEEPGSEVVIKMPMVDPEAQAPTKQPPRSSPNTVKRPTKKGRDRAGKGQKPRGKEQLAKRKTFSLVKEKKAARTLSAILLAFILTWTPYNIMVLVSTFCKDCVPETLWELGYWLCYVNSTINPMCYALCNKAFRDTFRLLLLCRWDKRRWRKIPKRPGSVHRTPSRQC
Description: Effective dose against affinity towards human muscarinic M1 receptor

[2] = biological target: T2, Muscarinic acetylcholine receptor M2 (Homo sapiens) (UniProt P08172); experiment: Effective dose against affinity towards human muscarinic M2 receptor; type: functional
T2 sequence (whole entry): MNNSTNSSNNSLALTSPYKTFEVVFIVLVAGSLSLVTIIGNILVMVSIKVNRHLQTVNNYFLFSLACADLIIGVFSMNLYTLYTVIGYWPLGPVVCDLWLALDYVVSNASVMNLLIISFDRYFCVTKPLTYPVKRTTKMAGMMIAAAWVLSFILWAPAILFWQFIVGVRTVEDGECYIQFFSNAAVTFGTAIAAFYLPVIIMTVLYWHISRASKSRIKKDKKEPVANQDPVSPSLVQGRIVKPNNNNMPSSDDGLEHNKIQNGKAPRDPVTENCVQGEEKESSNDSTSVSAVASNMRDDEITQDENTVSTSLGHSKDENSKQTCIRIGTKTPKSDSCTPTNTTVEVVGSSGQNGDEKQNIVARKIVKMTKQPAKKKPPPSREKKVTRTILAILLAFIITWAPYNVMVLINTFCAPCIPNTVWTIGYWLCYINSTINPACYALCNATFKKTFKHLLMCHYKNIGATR

[3] = biological target: T1, Muscarinic acetylcholine receptor M1 (Homo sapiens); experiment: Efficacy expressed as PI (percentage of carbachol) against human M1 receptor expressed in CHO cells; type: functional, cell-based
[4] = biological target: T3, Muscarinic acetylcholine receptor M2 (Homo sapiens, UniProt P08172); experiment: Binding affinity towards human muscarinic M2 receptor
T3 sequence (P08172 whole entry): T2 sequence (whole entry)

[5] = biological target: T4, Muscarinic acetylcholine receptor M1 (Homo sapiens, UniProt P11229); experiment: Affinity towards human M1 receptor expressed in CHO cells using [3H]QNB as radioligand; type: cell-based
T4 sequence (P11229 whole entry): T1 sequence (whole entry)

[6] = biological target: T3, Muscarinic acetylcholine receptor M2; experiment: In vitro functional agonism against M2 muscarinic receptor (cAMP)
[7] = Compound was evaluated for half-life in human liver microsomes; type: ADME, Microsome
[8] = biological target: T4, Muscarinic acetylcholine receptor M1; experiment: In vitro functional agonism against M1 muscarinic receptor (PI)
Rattus norvegicus [9] = experiment: Compound was evaluated in vivo for cognitive impairment reduction in AF64-impaired RAM, rat administered subcutaneously; type: functional; conditions: sc, read-out: MED
[10] = biological target: T5, Muscarinic acetylcholine receptor M3 (Homo sapiens, UniProt P20309); experiment: In vitro functional agonism against M3 muscarinic receptor (PI)
T5 sequence (P20309 whole entry): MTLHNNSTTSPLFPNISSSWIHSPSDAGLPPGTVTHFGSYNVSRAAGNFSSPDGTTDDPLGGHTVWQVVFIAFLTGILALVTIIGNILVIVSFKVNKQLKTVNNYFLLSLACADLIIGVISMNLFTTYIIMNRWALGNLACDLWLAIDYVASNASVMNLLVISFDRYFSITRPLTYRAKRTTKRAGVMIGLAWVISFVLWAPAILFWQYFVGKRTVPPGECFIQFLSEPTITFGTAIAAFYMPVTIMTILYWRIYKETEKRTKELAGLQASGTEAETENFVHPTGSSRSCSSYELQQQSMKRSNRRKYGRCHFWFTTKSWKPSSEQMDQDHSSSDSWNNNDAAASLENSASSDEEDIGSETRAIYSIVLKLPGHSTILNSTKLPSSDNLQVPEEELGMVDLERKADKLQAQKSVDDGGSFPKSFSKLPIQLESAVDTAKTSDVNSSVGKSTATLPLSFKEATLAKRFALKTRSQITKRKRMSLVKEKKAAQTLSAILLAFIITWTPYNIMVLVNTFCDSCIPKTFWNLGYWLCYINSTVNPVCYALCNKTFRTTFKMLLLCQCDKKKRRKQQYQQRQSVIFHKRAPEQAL

[11] = biological target: T5, Muscarinic acetylcholine receptor M3; experiment: Binding affinity towards human muscarinic M3 receptor
Monkey [12] = experiment: In vivo cognitive assessment after oral administration of WAY-132983 in primates (Rhesus and cynomolgus monkeys) using pre-trained aged subjects (short delay); type: functional; conditions: Cercopithecidae, read-out: MED
Monkey [13] = experiment: In vivo cognitive assessment after oral administration of WAY-132983 in primates (Rhesus and cynomolgus monkeys) using pre-trained aged subjects (long delay); type: functional; conditions: Cercopithecidae, read-out: MED
[14] = biological target: T6, Muscarinic acetylcholine receptor M1 (Rattus norvegicus, UniProt P08482); experiment: Binding affinity against M1 receptor was determined by displacing [3H]OXO-M in rat cortical homogenate
T6 sequence (P08482 whole entry): T1 sequence (whole entry) with A5V, T254S, P309S, R320K, A337G, I413V

Rattus norvegicus [15] = species: Rattus norvegicus; experiment: Compound was evaluated for minimum effective dose in the rat radial arm maze model; type: functional; conditions: read-out: MED
[16] = Compound was evaluated in vivo for lethal dose in rats; type: ADME, organism-based; conditions: rat

SMILES	PI [3]	Ki [5]	other results
CCCCCCOc1nccnc1OC1CN2CCC1C2 (stereo not given)	88%	–	ED50 [1]: 1.4 nM; ED50 [2]: 600 nM; Ki [4]: 20 nM
CCCCCCSc1nccnc1OC1CN2CCC1C2 (stereo in doubt; 4) [listing 1 of 2 here]	–	7 nM	–
CCCCCCSc1nccnc1O[C@H]1CN2CCC1C2.Cl (stereo not given in full)	–	2 nM	EC50 [6]: 8 nM; half-life [7]: 1.88 h; EC50 [8]: 1.1 nM; minimal effective dose (Rattus norvegicus [9]): 0.03 mg/kg; EC50 [10]: 3.7 nM; Ki [11]: 5.9 nM; minimal effective dose (Monkey [12]): 0.03 mg/kg; Ki [4]: 3.4 nM; minimal effective dose (Monkey [13]): 0.01 mg/kg; Ki [14]: 0.4 nM
CCCCCCOc1nccnc1O[C@H]1CN2CCC1C2 (stereo not given in full)	56%	690 nM	–
CCCCCCSc1nccnc1O[C@@H]1CN2CCC1C2 (stereo not given in full)	107%	75 nM	–
CCCCCCOc1nsnc1C1=CCCN(C)C1	79%	–	–
c1cnc(O[C@@H]2CN3CCC2C3)cn1 (stereo in doubt; 1) [listing 1 of 2 here]	96%	–	–
c1cnc(O[C@@H]2CN3CCC2C3)cn1 (stereo in doubt; 2) [listing 1 of 2 here]	83%	–	–
CCCCCCSc1nccnc1OC1CN2CCC1C2 (stereo in doubt; 8)	104%	–	–
CCCCCCSc1nccnc1O[C@H]1CN2CCC1C2 (stereo not given in full)	–	124 nM	–
CCCCCCSc1cncc(OC2CN3CCC2C3)n1 (stereo not given)	2%	22 nM	–
CNC(=O)O[C@@H]1CN2CCC1C2 (stereo not given in full)	100%	26000 nM	minimal effective dose (Rattus norvegicus [15]): 1 mg/kg
CCCCCCOc1nccnc1O[C@@H]1CN2CCC1C2 (stereo in doubt; 6)	–	14 nM	–
CCCCCCOc1nccnc1SC1CN2CCC1C2 (stereo not given)	42%	–	–
CCCCCCOc1nccnc1O[C@@H]1CN2CCC1C2 (stereo in doubt; 12) [listing 1 of 2 here]	–	465 nM	–
CCCCCCOc1nccnc1O[C@@H]1CN2CCC1C2 (stereo in doubt; 12) [listing 2 of 2 here]	9%	–	–
CCCCCCSc1nccnc1OC1CN2CCC1C2 (stereo in doubt; 4) [listing 2 of 2 here]	85%	–	–
CCCCCCSc1nccnc1SC1CN2CCC1C2 (stereo not given)	62%	–	–
c1cnc(O[C@@H]2CN3CCC2C3)cn1 (stereo in doubt; 2) [listing 2 of 2 here]	–	2500 nM	–
c1cnc(O[C@@H]2CN3CCC2C3)cn1 (stereo in doubt; 1) [listing 2 of 2 here]	–	5600 nM	LD50 [16]: 30 mg/kg; Ki [4]: 40 nM
